In ChEMBL document CHEMBL5584253, “Polyfunctionalized organoselenides: New synthetic approach from selenium-containing cyanohydrins and anti-melanoma activity” (Bioorg Med Chem Lett, 2024):
Activity calls are given as the source filed them. The calls are words filed in the database; no cut-off is given here.

Columns and labels:
BALB/3T3 [1] = test: Cytotoxicity against mouse BALB/3T3 cells assessed as reduction in cell viability at 10 to 50 ug/ml measured after 72 hrs; format: toxicity, cell-based; details: balb/3t3, 72 h, dose 10-50 µg/ml
BALB/3T3 [2] = test: Cytotoxicity against mouse BALB/3T3 cells assessed as reduction in cell viability at 50 ug/ml measured after 72 hrs; format: toxicity, cell-based; details: balb/3t3, 72 h, dose 50 µg/ml
B16-F10 [3] = test: Antiproliferative activity against mouse B16-F10 cells assessed as reduction in cell number at 10 to 50 ug/ml measured after 72 hrs; format: functional, cell-based; details: dose 10-50 µg/ml
BALB/3T3 [4] = test: Cytotoxicity against mouse BALB/3T3 cells assessed as reduction in cell viability at 10 to 50 ug/ml measured after 72 hrs by neutral red staining based analysis; format: toxicity; details: balb/3t3, 72 h, dose 10-50 µg/ml
BALB/3T3 [5] = test: Cytotoxicity against mouse BALB/3T3 cells assessed as reduction in cell viability at 10 to 50 ug/ml measured after 72 hrs by crystal violet staining based analysis; format: toxicity; details: balb/3t3, 72 h, dose 10-50 µg/ml
B16-F10 [6] = test: Antiproliferative activity against mouse B16-F10 cells assessed as reduction in cell viability at 10 to 50 ug/ml measured after 72 hrs; format: functional, cell-based; details: dose 10-50 µg/ml
B16-F10 [7] = test: Antiproliferative activity against mouse B16-F10 cells assessed as reduction in cell number at 50 ug/ml measured after 72 hrs; format: functional, cell-based; details: dose 50.0 µg/ml
B16-F10 [8] = test: Antiproliferative activity against mouse B16-F10 cells assessed as reduction in cell viability at 50 ug/ml measured after 72 hrs by neutral red uptake assay; format: functional, cell-based; details: dose 50.0 µg/ml

What does the source list for O=C(O)C(O)c1ccc([Se]c2ccccc2)cc1 (centres undefined)?
Activity (BALB/3T3 [1]): Non-Toxic; Activity (BALB/3T3 [2]): Non-Toxic; Activity (B16-F10 [3]): Active

How did the Activity (BALB/3T3 [4]) turn out when COC(=O)C(O)c1ccc([Se]c2ccccc2)cc1 (centres undefined) was run?
The Activity was “Toxic”.

And the Activity (BALB/3T3 [5])?
The Activity was “Toxic”.

How did the Activity (BALB/3T3 [1]) turn out when CCCC[Se]c1ccc(C(O)C(=O)OC)cc1 (centres undefined) was run?
Its Activity is “Non-Toxic”.

And the Activity (B16-F10 [6])?
Its Activity is “inactive”.

How did the Activity (BALB/3T3 [4]) turn out when OCC(O)c1ccc([Se]c2ccccc2)cc1 (centres undefined) was run?
Its Activity is “Toxic”.

What about the Activity (BALB/3T3 [5]) of the same molecule?
The Activity was “Toxic”.

Which Activity (BALB/3T3 [1]) does the source give for CCCC[Se]c1ccc(C(O)C(=O)O)cc1 (centres undefined) here?
The Activity was “Non-Toxic”.

And the Activity (B16-F10 [7])?
Its Activity is “Active”.

What about the Activity (B16-F10 [8]) of the same molecule?
The Activity was “Active”.

COC(=O)C(OC(C)=O)c1ccc([Se]c2ccccc2)cc1 (centres undefined) was tested. Which Activity (BALB/3T3 [4]) did it give?
Its Activity is “Toxic”.

And the Activity (BALB/3T3 [5])?
Its Activity is “Toxic”.
